Reference: patent publication US10294248B2, “Beta-lactamase inhibitors” (VenatoRx Pharmaceuticals, Inc., priority 2013, dated 2019)

Key:
Type in all cases: cell-based
[1] = test system: P. aeruginosa Ps296 expressing VIM-2; assay: Broth microdilution MIC, P. aeruginosa Ps296 VIM-2; conditions: Pseudomonas aeruginosa, read-out: MIC alone, P. aeruginosa expressing VIM-2
Source text: (§1) To determine the ability of test compounds to potentiate the inhibition of the growth of bacterial strains that produce beta-lactamase enzymes, classic cell based broth microdilution MIC assays were employed. Six bacteria strains producing beta-lactamase enzymes were used: E. coli expressing the Class A Extended Spectrum Beta-Lactamase (ESBL) CTX-M-15, E. cloacae expressing the Class C P99, K. pneumoniae expressing the Class A carbapenemase KPC-3, P. aeruginosa expressing the Class B carbapenemase VIM-2, K. pneumoniae expressing the class A carbapenemase KPC-2 and the class B carbapenemase VIM-4, and S. aureus producing the Class A penicillinase PC-1. The assay was conducted in Cation Adjusted Mueller Hinton Broth (CAMHB, BD #212322, BD Diagnostic Systems, Sparks, Md.). Bacteria strains were grown for 3-5 hours in CAMBH broth. Test compounds (Examples 1-30) were added to a microtiter plate in 2-fold serial dilutions in CAMHB in a final concentration range of 32 μg/mL to 0.25 μg/ml. An overlay of CAMHB containing a Beta-lactam was added to the compounds at a final static concentration of 4 μg/ml. […] In addition to the titration of test compounds the MICs of a panel of control beta-lactams is also tested to ensure the strains are behaving consistently from test to test. Once the test compound and antibiotics are added the plates can be inoculated according to CLSI broth microdilution method. After inoculation the plates are incubated for 16-20 hours at 37° C. then the Minimal Inhibitory Concentration (MIC) of the test compound is determined visually.
(§2) Using the methodology described above, examples of the current invention were evaluated for their ability to inhibit the growth of β-lactamase-producing bacteria in the presence of a β-lactam antibiotic.
(§3) Using the methodology described above in EXAMPLE III, exemplary compounds for Formula I or Formula Ia were evaluated for their ability to inhibit the growth of β-lactamase producing bacteria in the presence of a β-lactam antibiotic.

[2] = test system: K. pneumoniae A-1797 expressing KPC-2 and VIM-4; assay: Broth microdilution MIC, K. pneumoniae A-1797 KPC-2/VIM-4; conditions: Klebsiella pneumoniae, read-out: MIC alone, K. pneumoniae expressing KPC-2 and VIM-4
Source text: as §1, §2, §3

[3] = test system: K. pneumoniae 156319 expressing KPC-3; assay: Broth microdilution MIC, K. pneumoniae 156319 KPC-3; conditions: Klebsiella pneumoniae, read-out: MIC alone, K. pneumoniae expressing KPC-3
Source text: as §1, §2, §3

[4] = test system: S. aureus MSSA-7 producing penicillinase PC-1; assay: Broth microdilution MIC, S. aureus MSSA-7 PC-1; conditions: Staphylococcus aureus, MSSA; partner antibiotic alone, no β-lactamase inhibitor
Source text: as §1, §2, §3

[5] = test system: E. coli ESBL4 expressing CTX-M-15; assay: Broth microdilution MIC, E. coli ESBL4 CTX-M-15; conditions: Escherichia coli, read-out: MIC alone, E. coli expressing CTX-M-15
Source text: as §1, §2, §3

[6] = test system: E. cloacae 144200 expressing Class C P99 AmpC; assay: Broth microdilution MIC, E. cloacae 144200 p99 AmpC; conditions: Enterobacter cloacae, read-out: MIC alone, E. cloacae expressing Class C P99
Source text: as §1, §2, §3

## C[C@@H](O)[C@H]1C(=O)N2C(C(=O)O)=C(S[C@@H]3CN[C@H](C(=O)N(C)C)C3)[C@H](C)[C@H]12 [Meropenem, reference compound]
[1]
  MIC: 16 µg/mL
[2]
  MIC: 64 µg/mL
[3]
  MIC: > 128 µg/mL

## CCN1CCN(C(=O)N[C@@H](C(=O)N[C@@H]2C(=O)N3[C@@H]2SC(C)(C)[C@@H]3C(=O)O)c2ccccc2)C(=O)C1=O [Piperacillin, reference compound]
[4]
  MIC: 64 µg/mL

## CC(C)(O/N=C(\C(=O)N[C@@H]1C(=O)N2C(C(=O)[O-])=C(C[n+]3ccccc3)CS[C@H]12)c1csc(N)n1)C(=O)O [Ceftazidime, reference compound]
[5]
  MIC: > 128 µg/mL
[6]
  MIC: 128 µg/mL
